According to patent US6160008A, “Pharmaceutical compositions comprising S-alkylisothiouronium derivatives” (priority 1996, dated 2000):
“Also recorded” adds a separate entry of the source.

Columns and labels:
[1] = system: acid-base balance and gas composition of arterial blood; test: Acid-base balance and gas composition of arterial blood in hemorrhagic shock (Table 6); format: in vivo, cats
Method: The influence of S-ethylisothiouronium diethylphosphate on the major indices of the blood acid-base state (AAS) and gas content in hemorrhagic shock was studied at a dose of 5 mg/kg. The cats were narcotized intraperitoneally with pentobarbital sodium (nembutal) at a dose of 40 mg/kg. The blood loss was caused by blood-letting from the common carotid artery in an amount of 3.2% of the animal body mass, which approximately corresponds to 45-47% of the blood circulation volume. The blood-letting was carried out during 3-5 minutes. Tension characteristics of oxygen and carbon dioxide in arterial (PaO2, PaCO2) and mixed venous (PvO2, PvCO2) blood, pHa and pH were studied by Astrup micromethod. The hemoglobin content (Hb) was determined by the cianohemoglobin method. Bicarbonate ion content /HCO3 was calculated with the help of the Severinghause ruler. Calculations were carried out on the CM-1403-02 computer in the Forhtran language program. Indices of the acid-base balance and blood gas content were studied in the initial state, on the 30th minute after acute bleeding as well as on 2nd, 10th, 30th, and 60th minute after the medicine injection. The substance was injected singly intravenously on the 30th minute after the blood-letting.
In the test group (n=6), S-ethylisothiouronium diethylphosphate was injected at a dose of 5 mg/kg.

[2] = system: system hemodynamic indices; test: System hemodynamic indices in narcotised cats (Table 2); format: in vivo
Method: An experimental study of the S-ethylisothiouronium diethylphosphate effect on the indices of system hemodynamics were performed on 8 narcotised cats with a body mass of 2-4 kg. Urethane (30% solution intraperitoneally, 1-1.2 g/kg) was used for narcostisation. To determine the period of maximum efficiency and duration of the preparation effect, the major parameters of the blood circulation were determined before its introduction (initial data) and on the 2nd, 15th, 30th, and 60th minute after the introduction, at a dose of 5 mg/kg.
The system hemodynamics was estimated on the basis of the following indices: arterial blood pressure (AP), heart rate (HR), minute volume of blood circulation (MVC), stroke volume of the heart (SV), total vascular peripheral resistance (PR), work of the left ventricle (Alv).
The arterial pressure was measured in the left […] of cats by a mercury pressure gauge. To prevent blood clotting, 0.2-0.3 ml (1000-1500 units) of heparin was injected intravenously. Heart rate was calculated according to the R--R interval of electrocardiogram. Recording was performed through two-channel electrocardiograph. MVC was calculated according to Ramirez A. A. et al. (1956). SV, ARV, and PR were calculated from the data on MVC, AP, central blood volume, and HR using C. G Wiggers formular (1947). Quantitative material obtained in the experiments was subjected to statistical analysis by the Student t-test.

[3] = Pathomorphological examination of internal organs; format: in vivo, mice, dogs; conditions: mean lethal and sublethal doses
From the text: The disturbance to blood circulation has a reversible character and as a rule, it normalized within 7-10 days after the preparation had no longer any effect.

[4] = 5 mg/kg i.v., 10 min after injection
[5] = 5 mg/kg i.v., 30 min after injection
[6] = 5 mg/kg i.v., 60 min after injection
[7] = 5 mg/kg i.v., 2 min after injection
[8] = 5 mg/kg i.v., 15 min after injection

Structure (SMILES): CCSC(=N)N [S-ethylisothiouronium diethylphosphate]
- Bicarbonate ion content increase, arterial blood ([1]; 5 mg/kg i.v., 10th minute): 5%
- Bicarbonate ion content increase, arterial blood ([1]; 5 mg/kg i.v., 30th minute): 16%
- Bicarbonate ion content (HCO3 a) [1, 4]: 15.583 ± 1.333 mmol/L
- Buffer bases (Bba) [1, 4]: 34.150 ± 1.364 mmol/L
- Buffer bases shift (Bea) [1, 4]: -7.866 ± 1.095 mmol/L
- Carbonic acid gas tension (PaCO2) [1, 4]: 28.616 ± 2.858 mm Hg
- Oxygen tension (PaO2) [1, 4]: 94.483 ± 6.012
- pHa [1, 4]: 7.252±0.018
- Decrease of partial pressure of carbon dioxide (arterial and venous blood) ([1]; 5 mg/kg i.v., 10 minute, vs 30th minute after blood letting): 9%
- Bicarbonate ion content (HCO3 a) [1, 5]: 17.083 ± 1.065 mmol/L
- Buffer bases (Bba) [1, 5]: 34.966 ± 3.534 mmol/L
- Buffer bases shift (Bea) [1, 5]: -8.016 ± 1.436 mmol/L
- Carbonic acid gas tension (PaCO2) [1, 5]: 31.083 ± 1.933 mm Hg
- Oxygen tension (PaO2) [1, 5]: 95.466 ± 7.144
- pHa [1, 5]: 7.310±0.064
- Bicarbonate ion content (HCO3 a) [1, 6]: 15.900 ± 3.033 mmol/L
- Buffer bases (Bba) [1, 6]: 32.733 ± 5.616 mmol/L
- Buffer bases shift (Bea) [1, 6]: -9.450 ± 3.903 mmol/L
- Carbonic acid gas tension (PaCO2) [1, 6]: 35.217 ± 7.339 mm Hg
- Oxygen tension (PaO2) [1, 6]: 85.550 ± 6.575
- pHa [1, 6]: 7.208 ± 0.036
- Effect on acid-base balance and blood gases in words ([1]; arterial blood, hemorrhagic shock): does not influence negatively the acid-base balance; also recorded: corrects the metabolic acidosis caused by the loss of blood; also recorded: it had the tendency to increase in the arterial blood, and to decrease in the venous blood
- AP increase relative to the initial level ([2]; 5 mg/kg i.v., 2nd minute): 41%
- Alv above the initial value ([2]; 5 mg/kg i.v., 2nd minute): 89%
- MVC increase ([2]; 5 mg/kg i.v., 2nd minute): 7%
- PR, % of the initial level ([2]; 5 mg/kg i.v., 2nd minute): 135%
- Alv above the initial value ([2]; 5 mg/kg i.v., 15th minute): 22%
- MVC decrease ([2]; 5 mg/kg i.v., 15th minute): 11%
- MVC decrease ([2]; 5 mg/kg i.v., 30th minute): 22%
- AP above the initial level ([2]; 5 mg/kg i.v., 60th minute): 11%
- PR above the initial value ([2]; 5 mg/kg i.v., 60th minute): 58%
- AP [2, 7]: 168 ± 9.9 mm Hg
- Alv [2, 7]: 486.2 ± 136.8 g·cm
- HF [2, 7]: 166 ± 17.9 per min.
- MVC [2, 7]: 101.9 ± 6.8 mL/min
- PR [2, 7]: 138.6 ± 10.5 10^3 . din . c . cm^-5 /kg
- Stroke volume [2, 7]: 2.14 ± 0.45 mL
- AP [2, 8]: 158 ± 8.1 mm Hg
- Alv [2, 8]: 317.1 ± 59.4 g·cm
- HF [2, 8]: 178 ± 15.4 per min.
- MVC [2, 8]: 84.3 ± 5.7 mL/min
- PR [2, 8]: 153.8 ± 7.1 10^3 . din . c . cm^-5 /kg
- Stroke volume [2, 8]: 1.46 ± 0.25 mL
- AP [2, 5]: 152 ± 8.4 mm Hg
- Alv [2, 5]: 251.9 ± 50.3 g·cm
- HF [2, 5]: 192 ± 11.9 per min.
- MVC [2, 5]: 74.1 ± 5.2 mL/min
- PR [2, 5]: 168.5 ± 13.0 10^3 . din . c . cm^-5 /kg
- Stroke volume [2, 5]: 1.23 ± 0.21 mL
- AP [2, 6]: 132 ± 9.3 mm Hg
- Alv [2, 6]: 211.3 ± 56.1 g·cm
- HF [2, 6]: 188 ± 10.4 per min.
- MVC [2, 6]: 67.6 ± 8.4 mL/min
- PR [2, 6]: 161.5 ± 14.1 10^3 . din . c . cm^-5 /kg
- Stroke volume [2, 6]: 1.13 ± 0.26 mL
- Duration of hypertensive effect ([2]; 5 mg/kg i.v., single injection): up to 1 hour
- Effect on system hemodynamics in words ([2]; cats): on the 30th minute it returned to the initial level
- Pathomorphological findings [3]: moderately pronounced signs of hemodynamic disturbance; also recorded: No prounced inflammatory, distrophic or necrobiotic changes of internal organs were observed; also recorded: In some cases, signs of compensatory-adaptation reactions of liver
- Time to normalization of blood circulation disturbance [3]: 7 to 10 days
